Calls of active or inactive are those of the source. No cut-off for these calls is given here.

Data on 38 compounds can be found in ChEMBL document CHEMBL5321289, “Establishment of an MR1 Presentation Reporter Screening System and Identification of Phenylpropanoid Derivatives as MR1 Ligands” (J Med Chem, 2023).

The subject of data set [1] is HeLa. Nature of the data set: Induction of cell surface translocation of MR1 in human HeLa overexpressing MR1 assessed as increase in MR1 cell surface levels at 10 uM incubated for 8 hrs followed by labeling with PE-conjugated anti-hMR1 antibody by flow cytometry analysis. Type of data set: functional, cell-based. A general note: In flow cytometry, cells or beads pass a laser one at a time.

The test system of data set [2] is HeLa. Description: Cytotoxicity against human HeLa cells overexpressing MR1 assessed as reduction in cell viability at 3 to 100 uM incubated for 8 hrs by MTS assay. Type of data set: toxicity, cell-based. Particulars: dose 3-100 µM. In general terms: Tetrazolium assays rely on reduction of a dye to a coloured formazan, in cell work by metabolically active cells.

A short description of data set [3]: Inhibition of 5-OR-RU induced activation of mouse TG40 cells transfected with MAIT-alpha/betaTCR co-cultured with human HeLa cells overexpressing human MR1 assessed as upregulation of CD69 surface expression […] incubated for 24 hrs by flow cytometry. The note with it: TG40 cell. Type of data set: functional, cell-based.
Data set [4] in a line: Induction of cell surface translocation of MR1 in human HeLa overexpressing MR1 assessed as increase in MR1 cell surface levels incubated for 8 hrs followed by labeling with PE-conjugated anti-hMR1 antibody by flow cytometry analysis. Format: functional, cell-based.
Data set [5] relates to HeLa. Nature of the data set: Effect on MR1-specific presentation in human HeLa overexpressing MR1 assessed as increase in HLA-A/B/C cell surface levels incubated for 8 hrs followed by labeling with PE-conjugated anti-hMR1 antibody and APC-conjugated anti-HLA-A/B/C antibody by flow cytometry analysis. Format: functional, cell-based.
Data set [6] can be described thus: Cytotoxicity against mouse TG40 cells transfected with MAIT-alpha/betaTCR assessed as reduction in cell viability at 3 to 10 uM incubated for 24 hrs by MTS assay. The note with it: dose 3-10 µM. Type of data set: toxicity, cell-based.
Data set [7] concerns TG40 cell. Nature of the data set: Activation of mouse TG40 cells transfected with MAIT-alpha/betaTCR co-cultured with human HEK293 cells expressing N-terminal HiBit-tagged human beta2m/MR1 assessed as upregulation of CD69 surface expression on TG40 cells at 10 uM incubated for 24 hrs by flow cytometry. Format: functional, cell-based. A general note: The HiBiT peptide binds its large partner to form an active luciferase.

A short description of data set [8]: Cytotoxicity against mouse TG40 cells transfected with MAIT-alpha/betaTCR assessed as reduction in cell viability at 30 to 100 uM incubated for 24 hrs by MTS assay. Format: toxicity, cell-based. Particulars: dose 30-100 µM.
A further data set deals with HEK293. Description: Induction of cell surface translocation of MR1 in human HEK293 cells expressing N-terminal HiBit-tagged human beta2m/MR1 assessed as increase in MR1 cell surface expression level at 10 uM incubated for 8 hrs followed by labeling with PE-conjugated anti-hMR1 antibody by flow cytometry analysis. Format: functional, cell-based.
The subject of data set [9] is HeLa. Description: Cytotoxicity against human HeLa cells overexpressing MR1 assessed as reduction in cell viability at 3 to 100 uM incubated for 24 hrs by MTS assay. Type of data set: toxicity, cell-based. Particulars: dose 3-100 µM.
In data set [10] the test system is TG40 cell. Description: Activation of mouse TG40 cells transfected with MAIT-alpha/betaTCR co-cultured with human HeLa cells overexpressing human MR1 assessed as upregulation of CD69 surface expression […] at 10 uM incubated for 24 hrs by flow cytometry. Type of data set: functional, cell-based.
Data set [11] has as its system HeLa. Nature of the data set: Induction of cell surface translocation of MR1 in human HeLa overexpressing MR1 assessed as increase in MR1 cell surface levels at 0.1 to 10 uM incubated for 8 hrs followed by labeling with PE-conjugated anti-hMR1 antibody by flow cytometry analysis. Type of data set: functional, cell-based. Particulars: dose 0.1-10 µM.
Data set [12] has as its system TG40 cell. Nature of the data set: Activation of mouse TG40 cells transfected with MAIT-alpha/betaTCR co-cultured with human […] expressing N-terminal HiBit-tagged human beta2m/MR1 assessed as upregulation of CD69 surface expression […] at 1 uM incubated for 24 hrs by flow cytometry. Type of data set: functional, cell-based.
Data set [13] deals with TG40 cell. Description: Activation of mouse TG40 cells transfected with MAIT-alpha/betaTCR co-cultured with human HEK293 cells expressing N-terminal HiBit-tagged human beta2m/MR1 assessed as upregulation of CD69 surface expression on TG40 cells at 1 uM incubated for 24 hrs by flow cytometry. Format: functional, cell-based.

As for `COc1ccc(/C=C/C=O)cc1O`, the outcome with HeLa [1] was inactive.
Consider `COc1cc(/C=C/C=O)cc2c1OCO2`, for which the outcome in the data set on HeLa [1] was inactive.
Broadly, the IC50 is the midpoint of a concentration-inhibition curve. Broadly, the EC50 is the concentration giving half of the maximal effect. In the case of `CC(=O)Nc1nc(O)c2nc(C=O)cnc2n1`, the Activity result was “Non-Toxic” with HeLa [2], “Non-Toxic” in [6], “Toxic” in data set [8] and “Non-Toxic” in the data set on HeLa [9]. For the same compound, the half-maximal inhibitory concentration (IC50) in data set [3] turned out to be 0.017 µM. Further, in data set [4], the EC50 amounted to 0.153 µM. The result in the data set on HeLa [5] and in the data set on TG40 cell [7] was inactive. Further, the outcome in the data set on HEK293 was Active.
For the compound `O=Cc1c(O)cccc1I`, the result with TG40 cell [10] was inactive. Further, the Activity result in the data set with HeLa [11] is “Dose-Dependent Effect”.
Regarding `COc1cc(/C=C/C=O)c[nH]c1=O`, in the data set with HeLa [1], the outcome was inactive.
For `COc1cc(/C=C/C=O)ccc1O` [CONIFERYL ALDEHYDE], the Activity entry was “Non-Toxic” in the data set with HeLa [2]; “Dose-Dependent Effect” in the data set on HeLa [11]; “Non-Toxic” in data set [6]; “Toxic” in data set [8]; “Non-Toxic” in the data set with HeLa [9]. The half-maximal inhibitory concentration (IC50) in [3] was determined as 11.6 µM. In data set [4], the concentration for a half-maximal effect (EC50) turned out to be 9.03 µM. The outcome with TG40 cell [10] and with HeLa [5] was inactive.
For `Cc1ccc(/C=C/C=O)cc1`, in the data set with HeLa [1], the outcome was inactive.
`CC(C)(C)c1cc(C=O)c(O)c(C=O)c1`: the outcome in the data set with TG40 cell [10] was inactive. Moreover, the Activity entry in the data set on HeLa [11] was “Dose-Dependent Effect”.
On to `O=CC1=Cc2ccc(O)cc2OC1`, for which the outcome in the data set on HeLa [1] was inactive.
Turning to `COc1cc(/C=C/C=O)cc(OC)c1O`, in the data set with HeLa [1], the outcome was inactive.
Same read-out and setting: the entry for `COc1ccccc1/C=C/C=O` is “inactive”.
On to `COCCOC(=O)/C(=C\c1cc(C(C)(C)C)c(O)c(C(C)(C)C)c1)C(C)=O`, for which the result in the data set on TG40 cell [10] was inactive. Also, in the data set on HeLa [11], the Activity result is “Dose-Dependent Effect”.
On to `O=C/C=C/c1ccc(O)c(O)c1` [CAFFEOYL ALDEHYDE], for which the Activity result is reported as “Non-Toxic” with HeLa [2], “Non-Toxic” in [6], “Toxic” in data set [8] and “Non-Toxic” with HeLa [9]. Further, the outcome with HeLa [1] was Active. For the same compound, the half-maximal effective concentration (EC50) in [4] was 2.58 µM. Besides, the outcome in the data set with TG40 cell [10] and in the data set with HeLa [5] was inactive.
`COc1ccc(/C=C/C=O)cc1`: the result in the data set with HeLa [1] was inactive.
As for `COc1ccc(/C=C(\C)C=O)cc1`, in the data set with HeLa [1], the result was inactive.
Same read-out and setting: the entry for `COc1cccc(/C=C/C=O)c1` is “inactive”.
For `COc1cc(I)c(C=O)cc1OC`, the result in the data set on TG40 cell [10] was inactive. Moreover, the Activity result in the data set with HeLa [11] was “Dose-Dependent Effect”.
`Nc1nc2ncc(C=O)nc2c(=O)[nH]1`: the Activity entry in the data set on HeLa [2] is reported as “Non-Toxic”; in data set [6], “Non-Toxic”; in [8], “Toxic”; in the data set with HeLa [9], “Non-Toxic”. The IC50 in data set [3] was 0.505 µM. Further, in data set [4], the half-maximal effective concentration (EC50) turned out to be 1.63 µM.
For `COc1cc(/C=C/C=O)c(OC)cc1O`, the Activity entry was “Non-Toxic” in the data set on HeLa [2], “Non-Toxic” in data set [6], “Toxic” in data set [8] and “Non-Toxic” with HeLa [9]. Moreover, the outcome in the data set with HeLa [1] was Active. In addition, the half-inhibitory concentration (IC50) in data set [3] was found to be 7.34 µM. Further, in data set [4], the concentration giving a half-maximal response (EC50) stood at 3.89 µM. For the same compound, the outcome in the data set with TG40 cell [10] and in the data set on HeLa [5] was inactive.
As to `COc1ccc(O)c(/C=C/C=O)c1`, in the data set with HeLa [1], the result was inactive.
`O=C/C=C/c1ccccc1O`: the outcome with HeLa [1] was inactive.
With `O=C/C=C/c1ccc(O)cc1`, the result in the data set with HeLa [1] was inactive.
Regarding `COc1cc(O)ccc1/C=C/C=O`, the Activity entry in the data set with HeLa [2] is “Non-Toxic”; in [6], “Non-Toxic”; in data set [8], “Toxic”; in the data set on HeLa [9] it was “Non-Toxic”. The result in the data set with HeLa [1] was Active. Further, the concentration for half-maximal inhibition (IC50) in data set [3] stood at 7.93 µM. Moreover, in data set [4], the concentration giving a half-maximal response (EC50) was determined as 5.27 µM. In addition, the result in the data set on TG40 cell [10] and in the data set on HeLa [5] was inactive.
Turning to `O=C/C=C/c1ccccc1`, the outcome in the data set on HeLa [1] was inactive.
As for `COc1cc(/C=C/C=O)c(OC)c2c1OCO2`, the outcome in the data set on HeLa [1] was inactive.
In the case of `O=Cc1ccccc1C#C/C=C/CO`, in the data set on TG40 cell [10], the outcome was inactive. For the same compound, in the data set with HeLa [11], the Activity entry was “Dose-Dependent Effect”.
Consider `CN(C)c1cc(/C=C/C=O)ccc1O`, for which the outcome in the data set with HeLa [1] was inactive.
As to `O=Cc1ccc(O)c(C(=O)O)c1`, in the data set on HEK293, the result was Active.
With `COc1cc(C#C[Si](C)(C)C)c(C=O)cc1OC`, the outcome in the data set on TG40 cell [10] was inactive. Moreover, in the data set with HeLa [11], the Activity entry is “Dose-Dependent Effect”.
On to `COc1cc(/C=C/C(C)=O)ccc1O`, for which the result with HeLa [1] was inactive.
Same read-out and setting: under `COc1cc(/C=C/C=C/C=O)ccc1O` stands “inactive”; under `COc1cc(/C=C/C#N)ccc1O`, “inactive”.
For `COc1cc(CCC=O)ccc1O`, in the data set on HeLa [1], the outcome was inactive.
As to `COc1cc(C=O)ccc1O`, the outcome in the data set with HeLa [1] was inactive.
Still for that read-out and setting: the entry for `CCCCCC/C(C=O)=C\c1ccccc1` is “inactive”; for `CC(C)=CCc1cc(/C=C/C=O)ccc1O` it is “inactive”; for `COc1cc(/C=C/C(=O)O)ccc1O` it is “inactive”.
With `CC(=O)/C=N/c1c(NC[C@H](O)[C@H](O)[C@H](O)CO)[nH]c(=O)[nH]c1=O`, the result with TG40 cell [12] was inactive. The outcome in the data set on HEK293 and with TG40 cell [13] was Active.
